Results as given in patent publication JP2009132645A, “アシル化ハイドロキノン配糖体及びそれを含有する皮膚外用剤” (Pola Chemical Industries Inc, priority 2007, dated 2009).

Assay: Cytotoxicity in normal human epidermal melanocytes (trypan blue)
Format: cell-based
Conditions: 2 days culture, 0.5% trypan blue, concentration not given, read-out: cytotoxicity (judgement by cell death rate)

With `CCCCCCCCCCC(=O)OC[C@H]1O[C@@H](Oc2ccc(O)cc2)[C@H](O)[C@@H](O)[C@@H]1O` [比較化合物1, 6−O−ウンデカノイルアルブチン] as the compound, how does the cytotoxicity at 48 h read?
Its cytotoxicity at 48 h is over 50%.
